Data from patent US11932652B2, “Pyrrolidinyl urea derivatives and application thereof in TrkA-related diseases” (ZHANGZHOU PIEN TZE HUANG PHARMACEUTICAL CO., LTD., priority 2018, dated 2024).
Blank lines part the entries; values can stand above or below the compound they belong to.

Legend:
TrkA = target: T1, TrkA (Homo sapiens, UniProt P04629); assay: TrkA enzyme activity test (HTRF); format: biochemical; conditions: 0.5 nM TrkA kinase, 90 μM ATP, 23° C., 90 minutes
T1 construct: purchased Invitrogen PV4114
T1 sequence (P04629 33-796): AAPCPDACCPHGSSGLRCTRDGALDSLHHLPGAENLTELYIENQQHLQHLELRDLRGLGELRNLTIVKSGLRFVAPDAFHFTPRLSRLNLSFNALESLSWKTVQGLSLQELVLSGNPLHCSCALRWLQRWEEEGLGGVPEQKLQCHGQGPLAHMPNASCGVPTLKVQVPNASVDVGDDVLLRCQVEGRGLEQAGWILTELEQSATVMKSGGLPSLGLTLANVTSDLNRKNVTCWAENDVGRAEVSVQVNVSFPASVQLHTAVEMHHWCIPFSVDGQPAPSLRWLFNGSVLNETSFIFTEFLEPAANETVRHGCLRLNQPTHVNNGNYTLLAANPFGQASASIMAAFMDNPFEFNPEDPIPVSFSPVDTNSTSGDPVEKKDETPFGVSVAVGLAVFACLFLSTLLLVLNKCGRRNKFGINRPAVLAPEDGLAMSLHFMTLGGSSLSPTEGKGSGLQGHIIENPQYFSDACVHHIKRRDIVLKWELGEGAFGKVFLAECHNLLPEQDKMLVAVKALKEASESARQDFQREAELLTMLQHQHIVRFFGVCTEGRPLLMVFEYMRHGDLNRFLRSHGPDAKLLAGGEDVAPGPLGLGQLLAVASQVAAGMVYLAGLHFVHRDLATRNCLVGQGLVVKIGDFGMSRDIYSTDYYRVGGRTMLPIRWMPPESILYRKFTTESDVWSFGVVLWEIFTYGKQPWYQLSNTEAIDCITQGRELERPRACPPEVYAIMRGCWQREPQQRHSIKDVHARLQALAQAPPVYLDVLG
Description: 50 mM Hepes (pH 7.5), 5 mM MgCl2 (magnesium chloride), 0.01 mM orthovanadate (sodium vanadate), 1% BSA (bovine serum albumin), 1 mM (dithiothreitol)
This experiment used Cisbio's homogeneous time-resolved fluorescence resonance energy transfer (HTRF® method) for activity test. In the test plate, the enzyme, biotin-labeled peptide substrate, ATP, and test compound were mixed, and incubated for reaction. After the reaction, ethylenediaminetetraacetic acid was added to terminate the reaction; at the same time, Eu-labeled antibody and streptavidin-labeled XL665 were added for reaction and detection. The data were expressed by the readings of the fluorescence signal at 665 nm and 620 nm, where a high ratio of 665 nm/620 nm indicated higher activity, and a low ratio of 665 nm/620 nm indicated inhibition of activity.
1. Dilution of compound: the test compound was 3-fold diluted to prepare a total of 11 concentrations, the concentration was from 10 μM to 0.17 nM in the final system;
2. A 10 μL reaction system with a buffer of 50 mM Hepes (pH 7.5), 5 mM MgCl2, 0.01 mM sodium vanadate, 1% BSA, and 1 mM DTT, and containing 0.5 nM TrkA kinase, 0.3 μM biotin-TK peptide (biotin-labeled tyrosine kinase substrate peptide), 90 μM ATP was incubated at 23° C. for 90 minutes. 10 μL of stop solution containing 20 mM EDTA, 1.34 nM phosphorylated substrate antibody, and 100 nM streptavidin-labeled fluorescent molecule XL-665 was then added, incubated at 23° C. for 60 minutes; the signal was read with Envision;
3. The inhibition rate of the compound was calculated from the data read by the instrument, and the IC50 value was calculated using the mode 205 in XLFIT5 of IDBS.

plasma protein [1] = assay: Plasma protein binding rate (PPB) test, SD rat plasma; format: in vitro ADME; conditions: 2 μM, dialysis 37° C. 4 hours
Description: (§1) The protein binding rates of the test compound in the plasma of humans, SD rats and Beagle dogs were determined.
(§2) 796 μL of blank plasma from humans, SD rats and Beagle dogs (plasma purchased from BioreclamationIVT) were taken, 4 μL of working solution of the test compound (400 μM) or warfarin working solution (400 μM) was added and the final concentration of the test compound or warfarin was 2 μM. The sample was mixed thoroughly. The final concentration of organic phase DMSO was 0.5%; 50 μL of the plasma sample treated with the test compound or warfarin was pipetted into the sample receiving plate, and a corresponding volume of blank plasma or buffer was added immediately so that the final volume in each sample well was 100 μL, the volume ratio of plasma:dialysis buffer was 1:1; 400 μL of stop solution was added to these samples, and these samples were used as T0 samples for recovery and stability determination. To samples were stored at 2° C. to 8° C. for subsequent processing together with other dialyzed samples; 150 μL of the plasma sample treated with the test compound or warfarin was added into the dosing end of each dialysis hole, and 150 μL of blank dialysis buffer was added to the receiving end corresponding to the dialysis hole. Then the dialysis plate was sealed with gas-permeable membrane and placed in a humidified 5% CO2 incubator, and incubated at 37° C. with 100 rpm shaking for 4 hours. After the dialysis, 50 μL of the dialysis buffer sample and the dialysis plasma sample was transferred to a new sample receiving plate. […] All samples were analyzed by LC/MS/MS after protein precipitation, and the plasma protein unbound rate, binding rate and recovery rate was calculated according to the following formula: % unbound rate=100*free compound concentration at the membrane buffer side/total compound concentration at the membrane plasma side, % protein binding rate=100-% unbound rate, % recovery rate=100*(free compound concentration at the membrane buffer side+total compound concentration at the membrane plasma side)/total compound concentration before dialysis.

[2] = Metabolic stability (MMS) by human liver microsome; format: in vitro ADME; conditions: liver microsomes, pH 7.4, 0.5 mg protein/mL, read-out: Intrinsic clearance by liver microsome, Human
Description: (§3) Determination of the metabolic stability of the test compound by human, rat and canine liver microsome.
(§4) Test compound (10 mM), testosterone (reference compound, 10 mM), diclofenac (reference compound, 10 mM), propafenone (reference compound, 10 mM).
(§5) 100 mM potassium phosphate buffer (pH 7.4).
(§6) Intermediate solution: 45 μL of DMSO was used (with 450 μL of 1:1 methanol/water) to dilute 5 μL of the test or reference compound.
(§7) Working solution: 450 μL of 100 mM potassium phosphate buffer was used to dilute the intermediate solution.
(§8) 1. β-Nicotinamide adenine dinucleotide phosphate, from Sigma, Cat. No. N0505.
(§9) 3. Isocitrate dehydrogenase, from Sigma, Cat. No. 12002.
(§10) Preparation of liver microsome solution (final concentration: 0.5 mg protein/mL)
(§11) Cold acetonitrile containing 100 ng/mL tolbutamide and 100 ng/mL labetalol was used as the internal standard.
(§12) 10 μL of the working solution of the test compound or reference compound was added to all plates (T0, T5, T10, T20, T30, T60, NCF60).
(§13) 680 μL of liver microsome solution was added to each well of 96-well plates, then 80 μL was added to each well of the plates, and the plates were placed at 37° C. for pre-incubation for approximately 10 minutes. […]
(§14) The half-life T/2 and the intrinsic clearance by liver microsome Clint(mic) were calculated by the following formulas: […]

[3] = Metabolic stability (MMS) by rat liver microsome; format: in vitro ADME; conditions: liver microsomes, pH 7.4, 0.5 mg protein/mL, read-out: Intrinsic clearance by liver microsome, Rat
Description: as §3, §4, §5, §6, §7, §8, §9, §10, §11, §12, §13, §14

plasma protein [4] = assay: Plasma protein binding rate (PPB) test, human plasma; format: in vitro ADME; conditions: 2 μM, dialysis 37° C. 4 hours
Description: as §1, §2

CYP2C19 = target: T2, CYP2C19 (Homo sapiens, UniProt P33261); assay: Cytochrome P450 isozyme inhibitory activity test, CYP2C19; format: in vitro ADME; conditions: heading: Cytochrome P450 isozyme IC50, CYP2C19; human liver microsome
T2 construct: from tissue; host or cells: human liver microsomes
T2 sequence (P33261 whole entry): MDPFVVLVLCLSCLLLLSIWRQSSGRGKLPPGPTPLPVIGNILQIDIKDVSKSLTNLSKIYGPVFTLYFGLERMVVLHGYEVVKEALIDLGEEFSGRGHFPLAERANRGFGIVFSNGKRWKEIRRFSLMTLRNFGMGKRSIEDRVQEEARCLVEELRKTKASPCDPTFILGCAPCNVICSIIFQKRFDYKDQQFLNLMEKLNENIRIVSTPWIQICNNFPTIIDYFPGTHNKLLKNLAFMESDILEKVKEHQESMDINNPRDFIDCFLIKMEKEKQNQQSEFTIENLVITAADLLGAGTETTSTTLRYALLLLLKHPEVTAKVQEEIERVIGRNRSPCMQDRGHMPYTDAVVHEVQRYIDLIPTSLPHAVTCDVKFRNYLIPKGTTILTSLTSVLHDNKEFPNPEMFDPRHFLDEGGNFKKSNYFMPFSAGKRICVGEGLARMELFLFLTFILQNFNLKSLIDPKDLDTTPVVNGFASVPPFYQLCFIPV
Description: (§15) Determination of the inhibitory activity of the test compound on different human cytochrome P450 isozymes.
(§16) The test compound, standard inhibitor (100×final concentration), and a mixed substrate working solution were prepared; the microsome frozen in −80° C. refrigerator was thawed. 2 μL of the test compound and standard inhibitor solution was added to the corresponding wells, and at the same time 2 μL of the corresponding solvent was added to the non-inhibitor control wells (NIC) and blank control wells (Blank) wells; then 20 μL of mixed substrate solution was added to the corresponding wells, except for the Blank wells (20 μL of PB was added to the Blank wells); a human liver microsome solution was prepared (put back into the refrigerator immediately after using and marking the date), and then 158 μL of the human liver microsome solution was added to all wells; the above sample plate was placed in a 37° C. water bath for pre-incubation, then the coenzyme factor (NADPH) solution was prepared; 10 minutes later, 20 μL of the NADPH solution was added to all wells, and the sample plate was shaken well, placed in a 37° C. water bath and incubated for 10 minutes; at the corresponding time point, 400 μL of cold acetonitrile solution (internal standard: 200 ng/mL tolbutamide and labetalol) was added to terminate the reaction; the sample plate was evenly mixed, centrifuged at 4000 rpm for 20 minutes to precipitate proteins; 200 μL of the supernatant was added to 100 μL of water, shook well, and tested by LC/MS/MS.

CYP2D6 = target: T3, CYP2D6 (Homo sapiens, UniProt P10635); assay: Cytochrome P450 isozyme inhibitory activity test, CYP2D6; format: in vitro ADME; conditions: human liver microsomes
T3 construct: from tissue; host or cells: human liver microsomes
T3 sequence (P10635 whole entry): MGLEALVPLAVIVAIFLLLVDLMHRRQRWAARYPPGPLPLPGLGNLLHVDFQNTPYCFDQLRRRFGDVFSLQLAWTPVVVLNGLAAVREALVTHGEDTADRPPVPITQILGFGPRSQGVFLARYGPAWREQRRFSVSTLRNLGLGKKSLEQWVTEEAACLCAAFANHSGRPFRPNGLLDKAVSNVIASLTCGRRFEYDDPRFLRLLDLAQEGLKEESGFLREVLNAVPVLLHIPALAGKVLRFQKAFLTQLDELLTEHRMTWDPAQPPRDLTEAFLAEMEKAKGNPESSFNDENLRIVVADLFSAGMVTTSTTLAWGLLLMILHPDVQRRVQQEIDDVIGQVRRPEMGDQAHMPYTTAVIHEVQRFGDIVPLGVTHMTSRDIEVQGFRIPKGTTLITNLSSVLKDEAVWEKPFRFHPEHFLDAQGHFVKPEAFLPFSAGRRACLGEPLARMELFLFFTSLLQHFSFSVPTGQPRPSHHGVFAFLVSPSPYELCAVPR
Description: as §15
(§17) The test compound, standard inhibitor (100×final concentration), and a mixed substrate working solution were prepared; the microsome frozen in −80° C. refrigerator was thawed. […]

CYP3A4 = target: T4, CYP3A4 (Homo sapiens, UniProt P08684); assay: Cytochrome P450 isozyme inhibitory activity test, CYP3A4; format: in vitro ADME; conditions: human, human liver microsomes
T4 construct: from tissue; host or cells: human liver microsomes
T4 sequence (P08684 whole entry): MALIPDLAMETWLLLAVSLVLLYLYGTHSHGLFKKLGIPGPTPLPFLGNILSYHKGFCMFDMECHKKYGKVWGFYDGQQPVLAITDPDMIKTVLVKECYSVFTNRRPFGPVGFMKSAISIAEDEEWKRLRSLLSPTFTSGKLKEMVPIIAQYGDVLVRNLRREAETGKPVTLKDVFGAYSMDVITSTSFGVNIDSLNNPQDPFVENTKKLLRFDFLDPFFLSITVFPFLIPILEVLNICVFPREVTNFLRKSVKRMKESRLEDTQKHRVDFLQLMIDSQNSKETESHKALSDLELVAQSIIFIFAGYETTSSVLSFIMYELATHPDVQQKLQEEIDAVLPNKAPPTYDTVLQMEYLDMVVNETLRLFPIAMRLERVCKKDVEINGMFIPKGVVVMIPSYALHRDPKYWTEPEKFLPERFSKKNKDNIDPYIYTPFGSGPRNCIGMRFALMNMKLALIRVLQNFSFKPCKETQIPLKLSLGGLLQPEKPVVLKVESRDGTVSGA
Description: as §15, §16

CYP2C9 = target: T5, CYP2C9 (Homo sapiens, UniProt P11712); assay: Cytochrome P450 isozyme inhibitory activity test, CYP2C9; format: in vitro ADME
T5 construct: from tissue; host or cells: human liver microsomes
T5 sequence (P11712 whole entry): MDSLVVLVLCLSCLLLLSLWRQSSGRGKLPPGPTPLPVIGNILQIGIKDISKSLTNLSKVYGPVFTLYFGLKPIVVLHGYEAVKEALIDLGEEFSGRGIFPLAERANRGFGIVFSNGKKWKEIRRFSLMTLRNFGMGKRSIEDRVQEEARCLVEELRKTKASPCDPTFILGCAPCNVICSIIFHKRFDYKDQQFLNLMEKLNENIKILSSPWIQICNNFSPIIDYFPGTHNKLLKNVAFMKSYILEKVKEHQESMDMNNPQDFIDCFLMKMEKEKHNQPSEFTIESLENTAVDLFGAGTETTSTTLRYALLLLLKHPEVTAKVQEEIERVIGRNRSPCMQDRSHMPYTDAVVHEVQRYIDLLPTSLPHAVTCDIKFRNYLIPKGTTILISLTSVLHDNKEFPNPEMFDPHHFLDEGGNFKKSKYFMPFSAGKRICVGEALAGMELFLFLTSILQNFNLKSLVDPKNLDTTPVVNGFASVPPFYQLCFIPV
Description: as §15, §17

Structure (SMILES): COCCN1C[C@@H](n2ccc(F)c2)[C@H](NC(=O)Nc2c(C)c(-c3cnc(C4(F)CNC4)nc3)nn2-c2ccccc2)C1 [Compound 8]
- IC50 (TrkA): 0.00103 µM

Structure (SMILES): COCCN1C[C@@H](NC(=O)Nc2c(C)c(-c3cnc(C)nc3)nn2-c2ccccc2)[C@H](c2cccc(F)c2)C1 [Reference compound D1, reference compound]
- Plasma protein unbound rate, SD Rat plasma (plasma protein [1]): 9.6%
- IC50 (CYP2C19): > 50 µM
- CLint scaled [2]: 52.1 mL/min/kg
- CLint scaled [3]: 52.9 mL/min/kg
- IC50 at 10 min (CYP2D6): 39.7 µM
- IC50 at 10 min (CYP3A4): 37.1 µM
- IC50 (CYP2C9; heading: Cytochrome P450 isozyme IC50, CYP2C9, human liver microsome): > 50 µM
- Plasma protein unbound rate, Human plasma (plasma protein [4]): 13.6%

Structure (SMILES): COCCN1C[C@@H](n2cc(F)c(F)c2)[C@H](NC(=O)Nc2c(C)c(-c3cnc(C4(F)COC4)nc3)nn2-c2ccccc2)C1 [Compound 6]
- IC50 (TrkA): 0.00027 µM

Structure (SMILES): COCCN1C[C@@H](n2cc(F)c(F)c2)[C@H](NC(=O)Nc2c(C)c(-c3cnc4c(c3)COC4)nn2-c2ccccc2)C1 [Compound 1]
- IC50 (CYP2C19): > 50 µM
- IC50 (TrkA): 0.00016 µM
- IC50 at 10 min (CYP2D6): 28.5 µM
- IC50 at 10 min (CYP3A4): 19.2 µM
- IC50 at 10 min (CYP2C9; human, human liver microsomes): 24.2 µM

The remaining compounds from weak to strong by IC50 (TrkA), led by results:

- IC50 (TrkA): 0.00305 µM
Structure (SMILES): COCCN1C[C@@H](n2ccc(F)c2)[C@H](NC(=O)Nc2c(C)c(-c3cc4n(n3)CCC4)nn2-c2ccccc2)C1 [Compound 4]

- Plasma protein unbound rate, SD Rat plasma (plasma protein [1]): 5.1%
- IC50 (TrkA): 0.00027 µM
- CLint scaled [2]: 54.6 mL/min/kg
- CLint scaled [3]: 25.5 mL/min/kg
- Plasma protein unbound rate, Human plasma (plasma protein [4]): 15.3%
Structure (SMILES): COCCN1C[C@@H](n2cc(F)c(F)c2)[C@H](NC(=O)Nc2c(C)c(-c3cnc4c(c3)CN(C)C4)nn2-c2ccccc2)C1 [Compound 2]

- IC50 (TrkA): 0.00024 µM
Structure (SMILES): COCCN1C[C@@H](n2ccc(F)c2)[C@H](NC(=O)Nc2c(C)c(-c3cnc4c(c3)COC4)nn2-c2ccccc2)C1 [Compound 5]
